Data taken from US11696921B2, “Synthetic composition for microbiota modulation” (GLYCOM A/S, priority 2015, dated 2023).

Experiments:
[1] = tested on: totality of B. longum + B. bifidum + B. animalis lactis + B. angulatum; experiment: Faecal microbiota / Bifidobacterium profiling after 2 weeks' daily HMO consumption by healthy adults; type: in vivo, human; conditions: oral
Protocol: (§1) A total of 100 male and female healthy adults are recruited to participate in the study. After a screening visit and run-in period of 1-2 weeks, the participants are selected and randomized into ten groups, each of 10 subjects. One group is administered a placebo product containing 2 grams of glucose. The remaining 9 groups are administered treatment product containing a) 20 g of 2′-FL, b) 10 g of 2′-FL, c) 5 g of 2′-FL, d) 20 g of LNnT, e) 10 g of LNnT, f) 5 g of LNnT, g) 20 g of a 2:1 mixture of 2′-FL and LNnT, h) 10 g of a 2:1 mixture of 2′-FL and LNnT, and i) 5 g of a 2:1 mixture of 2′-FL and LNnT for 2 weeks (the amounts correspond to a daily dose). The placebo and treatment products are in powder form in a unit dosage container.
(§2) At the second visit, eligibility criteria are checked and eligible subjects are randomised to the ten arms in the trial (treatment groups and placebo group). The faecal samples are collected and equipment for new samples are distributed. Participants are familiarised with an interactive internet enabled system which recorded data daily and are provided with either treatment or control products. Subjects are reminded not to change their usual diet during the study. Blood samples are collected for biomarker studies. The faecal samples are stored at −80° C. until analysis.
(§3) The study runs for 2 weeks with the participants consuming either a placebo or a treatment product daily. Participants are instructed to consume the products in the morning with breakfast. Compliance is monitored through the interactive internet enabled system.
(§4) At the end of the study, each participant has an exit visit with the medical team. Faecal samples and blood samples are collected.
(§5) To assess the microbiota profile, DNA is extracted from the faecal samples using a 96-well PowerSoil DNA Isolation Kit (MO-BIO). A minimum of one sample-well per plate is kept empty to serve as a negative control during PCR. PCR is done with the forward primer S-D-Bact-0341-b-S-17 and reverse primer S-D-Bact-0785-a-A-21 (Klindworth et al. Nucleic Acids Res. 41, e1 (2013)) with Illumina adapters attached. These are universal bacterial 16S rDNA primers, which targeted the V3-V4 region. The following PCR program is used: 98° C. for 30 sec, 25× (98° C. for 10 s, 55° C. for 20 s, 72° C. for 20 s), 72° C. for 5 min. Amplification is verified by running the products on a 1% agarose gel. Barcodes are added in a nested PCR using the Nextera Index Kit V2 (Illumina) with the following PCR program: 98° C. for 30 sec, 8× (98° C. for 10 s, 55° C. for 20 s, 72° C. for 20 s), 72° C. for 5 min. Attachment of primers is verified by running the products on a 1% agarose gel. Products from the nested PCR are normalized using the SequalPrep Normalization Plate Kit and pooled. Pooled libraries are concentrated by evaporation and the DNA concentration of pooled libraries is measured on a Qubit fluorometer using the Qubit High Sensitivity Assay Kit (Thermo Fisher Scientific). Sequencing is done on a MiSeq desktop sequencer using the MiSeq Reagent Kit V3 (Illumina) for 2×300 bp paired-end sequencing. The 64-bit version of USEARCH is used for bioinformatical analysis of the sequence data.
(§6) To assess the Bifidobacterium community, ITS profiling of DNA samples is performed according to Milani et al. FEMS Microbiol. Ecol. 90, 493 (2014). […] Both B. adolescentis and B. pseudocatenulatum are members of the B. adolescentis phylogenetic group. It can be seen that oral ingestion of the HMOs clearly increases the abundance of B. adolescentis and/or B. pseudocatenulatum in the microbiota of healthy adults, as well as their relative abundance compared to the totality of other Bifidobacterium species.

[2] = tested on: B. adolescentis phylogenetic group; experiment: as above; type: in vivo, human; conditions: oral
Protocol: as §1, §2, §3, §4, §5, §6

| Compound | percentage increase of totality of B. longum + B. bifidum + B. animalis lactis + B. angulatum in human faeces ([1]; 5 g daily dose) | percentage increase of totality of B. longum + B. bifidum + B. animalis lactis + B. angulatum in human faeces ([1]; 10 g daily dose) | percentage increase of totality of B. longum + B. bifidum + B. animalis lactis + B. angulatum in human faeces ([1]; 20 g daily dose) | percentage increase of B. adolescentis phylogenetic group in human faeces ([2]; 5 g daily dose) | percentage increase of B. adolescentis phylogenetic group in human faeces ([2]; 10 g daily dose) | percentage increase of B. adolescentis phylogenetic group in human faeces ([2]; 20 g daily dose) |
| --- | --- | --- | --- | --- | --- | --- |
| 2′-fucosyllactose [2′-FL] | 0% | 20% | 15% | 50% | 325% | 120% |
| CC(=O)N[C@H]1[C@H](O[C@H]2[C@@H](O)[C@@H](CO)O[C@@H](O[C@H]3[C@H](O)[C@@H](O)C(O)O[C@@H]3CO)[C@@H]2O)O[C@H](CO)[C@@H](O[C@@H]2O[C@H](CO)[C@H](O)[C@H](O)[C@H]2O)[C@@H]1O (mixture of isomers) [LNnT, lacto-N-neotetraose] | 50% | 130% | 105% | 90% | 195% | 185% |
